Measured values reported in patent US20230374038A1, “MODULATORS OF CYSTIC FIBROSIS TRANSMEMBRANE CONDUCTANCE REGULATOR” (VERTEX PHARMACEUTICALS INCORPORATED, priority 2020, published 2023).

Target: CFTR (Homo sapiens, UniProt P13569)
Assay: Membrane Potential Dye, Enteroid Assay B
Format: cell-based
Settings: for EC50: read-out: Ent. B EC50
Protocol: Base medium (ADF+++) consisted of Advanced DMEM/Ham's F12, 2 mM Glutamax, 10 mM HEPES, 1 µg/mL penicillin/streptomycin.
Intestinal enteroid maintenance medium (IEMM) consisted of ADF+++, 1× B27 supplement, 1× N2 supplement, 1.25 mM N-acetyl cysteine, 10 mM Nicotinamide, 50 ng/mL hEGF, 10 nM Gastrin, 1 pg/mL hR-spondin-1, 100 ng/mL hNoggin, TGF-b type 1 inhibitor A-83-01, 100 μg/mL Primocin, […] P38 MAPK inhibitor SB202190.
Bath 1 Buffer consisted of 1 mM MgCl2, 160 mM NaCl, 4.5 mM KCl, 10 mM HEPES, 10 mM Glucose, 2 mM CaCl2).
Chloride Free Buffer consisted of 1 mM Magnesium Gluconate, 2 mM Calcium Gluconate, 4.5 mM Potassium Gluconate, 160 mM Sodium Gluconate, 10 mM HEPES, 10 mM Glucose.
Bath1 Dye Solution consisted of Bath 1 Buffer, 0.04% Pluronic F127, […] Methyl Oxonol, 30 μM CaCCinh-A01, 30 μM Chicago Sky Blue.
Chloride Free Dye Solution consisted of Chloride Free Buffer, 0.04% Pluronic F127, 20 μM Methyl Oxonol, 30 μM CaCCinh-A01, 30 μM Chicago Sky Blue.
Chloride Free Dye Stimulation Solution consisted of Chloride Free Dye Solution, 10 μM forskolin, 100 μM IBMX, and 300 nM Compound III.
Human intestinal epithelial enteroid cells were obtained from the Hubrecht Institute for Developmental Biology and Stem Cell Research, Utrecht, The Netherlands and expanded in T-Flasks as previously described (Dekkers J F, Wiegerinck C L, de Jonge H R, Bronsveld I, Janssens H M, de Winter-de Groot K M, Brandsma A M, de Jong N W M, Bijvelds M J C, Scholte B J, Nieuwenhuis E E S, van den Brink S, Clevers H, van der Ent C K, Middendorp S and M Beekman J M. A functional CFTR assay using primary cystic fibrosis intestinal organoids. Nat Med. 2013 July; 19(7):939-45.).
Cells were recovered in cell recovery solution, collected by centrifugation at 650 rpm for 5 min at 4° C., resuspended in TryPLE and incubated for 5 min at 37° C. Cells were then collected by centrifugation at 650 rpm for 5 min at 4° C. and resuspended in IEMM containing 10 μM ROCK inhibitor (RI). The cell suspension was passed through a 40 μm cell strainer and resuspended at 1×10^6 cells/mL in IEMM containing 10 μM RI. Cells were seeded at 5000 cells/well into multi-well plates and incubated for overnight at 37° C., 95% humidity and 5% CO2 prior to assay.
Enteroid cells were incubated with test compound in IEMM for 18-24 hours at 37° C., 95% humidity and 5% CO2. […] Briefly, cells were washed 5 times in Bath 1 Buffer. Bath 1 Dye Solution was added and the cells were incubated for 25 min at room temperature. Following dye incubation, cells were washed 3 times in Chloride Free Dye Solution. Chloride transport was initiated by addition of Chloride Free Dye Stimulation Solution and the fluorescence signal was read for 15 min. […] Chloride transport was then expressed as a percentage of the chloride transport following treatment with 1 μM (14S)-8-[3-(2-{Dispiro[2.0.2.1]heptan-7-yl}ethoxy)-1H-pyrazol-1-yl]-12,12-dimethyl-2λ^6-thia-3,9,11,18,23-pentaazatetracyclo[17.3.1.111,14.05,10]tetracosa-1(22),5,7,9,19(23),20-hexaene-2,2,4-trione, 3 μM (R)-1-(2,2-difluorobenzo[d][1,3]dioxol-5-yl)-N-(1-(2,3-dihydroxypropyl)-6-fluoro-2-(1-hydroxy-2-methylpropan-2-yl)-1H-indol-5-yl)cyclopropanecarboxamide and 300 nM acute N-[2,4-bis(1,1-dimethylethyl)-5-hydroxyphenyl]-1,4-dihydro-4-oxoquinoline-3-carboxamide triple combination control (% Activity).

Sequence of CFTR (P13569 with tags, fused parts or gaps DEL508-508): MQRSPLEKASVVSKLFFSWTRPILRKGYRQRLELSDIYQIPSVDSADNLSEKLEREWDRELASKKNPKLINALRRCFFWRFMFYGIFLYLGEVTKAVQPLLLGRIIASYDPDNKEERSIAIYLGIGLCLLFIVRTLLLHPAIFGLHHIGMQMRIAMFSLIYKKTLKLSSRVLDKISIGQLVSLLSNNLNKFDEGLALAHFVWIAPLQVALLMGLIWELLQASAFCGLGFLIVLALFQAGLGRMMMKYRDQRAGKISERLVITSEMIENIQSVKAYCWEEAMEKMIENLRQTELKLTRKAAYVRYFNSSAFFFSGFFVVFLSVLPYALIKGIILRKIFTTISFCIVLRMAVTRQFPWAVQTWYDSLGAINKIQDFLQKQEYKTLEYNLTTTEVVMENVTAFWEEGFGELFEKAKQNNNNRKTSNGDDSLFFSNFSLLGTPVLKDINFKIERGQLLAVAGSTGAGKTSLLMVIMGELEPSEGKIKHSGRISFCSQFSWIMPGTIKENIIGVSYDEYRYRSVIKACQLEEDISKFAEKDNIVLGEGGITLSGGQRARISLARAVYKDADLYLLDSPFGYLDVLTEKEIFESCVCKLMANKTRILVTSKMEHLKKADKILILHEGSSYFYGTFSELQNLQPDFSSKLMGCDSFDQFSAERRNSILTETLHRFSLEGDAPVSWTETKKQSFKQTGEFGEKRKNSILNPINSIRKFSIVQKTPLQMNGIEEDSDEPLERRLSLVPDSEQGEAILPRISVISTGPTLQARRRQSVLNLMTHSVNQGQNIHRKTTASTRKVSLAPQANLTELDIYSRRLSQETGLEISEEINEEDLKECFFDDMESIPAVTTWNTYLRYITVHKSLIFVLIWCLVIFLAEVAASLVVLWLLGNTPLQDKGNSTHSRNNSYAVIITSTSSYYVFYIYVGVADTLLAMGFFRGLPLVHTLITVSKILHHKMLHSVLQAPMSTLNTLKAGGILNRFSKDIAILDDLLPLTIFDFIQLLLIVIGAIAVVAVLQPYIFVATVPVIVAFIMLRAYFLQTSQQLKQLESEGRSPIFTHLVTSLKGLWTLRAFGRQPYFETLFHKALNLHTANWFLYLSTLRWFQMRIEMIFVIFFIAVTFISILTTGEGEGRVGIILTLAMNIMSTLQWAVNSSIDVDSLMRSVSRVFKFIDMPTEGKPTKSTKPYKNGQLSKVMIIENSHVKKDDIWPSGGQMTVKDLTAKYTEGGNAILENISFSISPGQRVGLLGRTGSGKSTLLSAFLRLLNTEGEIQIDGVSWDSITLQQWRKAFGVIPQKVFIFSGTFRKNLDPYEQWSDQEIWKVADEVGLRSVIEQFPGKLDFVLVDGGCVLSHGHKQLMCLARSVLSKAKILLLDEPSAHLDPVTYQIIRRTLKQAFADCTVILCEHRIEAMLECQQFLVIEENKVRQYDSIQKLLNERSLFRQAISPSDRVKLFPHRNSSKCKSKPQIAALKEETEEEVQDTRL

SMILES	Ent. B Max Activity	EC50
Cc1cccc(C)c1-c1nc2nc(c1C)OC[C@@H](CC1(C(F)(F)F)CC1)NC(=O)c1cccc(c1)S(=O)(=O)N2 [Compound 103]	+++ (+++ is >60%)	< 1000 nM
Cc1cccc(C)c1-c1nc2nc(c1C)OC[C@@H](CC(C)(C)O)N(CCCC(C)(C)O)C(=O)c1cccc(c1)S(=O)(=O)N2 [Compound 110]	+ (+ is <30%)	–
Cc1cccc(C)c1-c1nc2nc(c1-c1ccn(C)n1)OC[C@@H](C)NC(=O)c1cccc(c1)S(=O)(=O)N2 [Compound 137]	+ (+ is <30%)	–
Cc1cccc(C)c1-c1nc2nc(c1C)OC[C@@H](CC(C)(C)C)N(C1CC3(CC(N)C3)C1)C(=O)c1cccc(c1)S(=O)(=O)N2 (single isomer, unassigned) [Compound 63]	+++ (+++ is >60%)	< 1000 nM
Cc1cccc(C)c1-c1nc2nc(c1CCC(C)(C)C)O[C@H](C)CNC(=O)c1cccc(c1)S(=O)(=O)N2 [Compound 120, (10R)-7-(3,3-Dimethylbutyl)-6-(2,6-dimethylphenyl)-10-methyl-2,2-dioxo-9-oxa-2λ^6-thia-3,5,12,19-tetrazatricyclo[12.3.1.14,8]nonadeca-1(18),4(19),5,7,14,16-hexaen-13-one]	+++ (+++ is >60%)	< 1000 nM
Cc1cccc(C)c1-c1nc2nc(c1C)OC[C@@H](CC1(C(F)(F)F)CC1)N(C1CC3(CC(NC(=O)OC(C)(C)C)C3)C1)C(=O)c1cccc(c1)S(=O)(=O)N2 (stereo in doubt) [Compound 97]	+++ (+++ is >60%)	< 1000 nM
COCCN1CCC2(CC1)CC(N1C(=O)c3cccc(c3)S(=O)(=O)Nc3nc(c(F)c(-c4c(C)cccc4C)n3)OC[C@H]1CC(C)C)C2 [Compound 185]	+++ (+++ is >60%)	< 1000 nM
Cc1cccc(C)c1-c1nc2nc(c1C)OC[C@@H](CC(C)C)N(C1CC3(CC(CO)C3)C1)C(=O)c1cccc(c1)S(=O)(=O)N2 (stereo in doubt) [Compound 66]	+++ (+++ is >60%)	< 1000 nM
Cc1cccc(C)c1-c1nc2nc(c1C)OC[C@@H](CC1(C(F)(F)F)CC1)N(C1CC3(CC(NC(=O)OC(C)C)C3)C1)C(=O)c1cccc(c1)S(=O)(=O)N2 (stereo in doubt) [Compound 89]	+++ (+++ is >60%)	< 1000 nM
Cc1cccc(C)c1-c1nc2nc(c1C1=CCN(C(=O)OC(C)(C)C)CC1)O[C@H](C)CNC(=O)c1cccc(c1)S(=O)(=O)N2 [Compound 149]	++ (++ is 30-60%)	< 1000 nM
Cc1cccc(C)c1-c1nc2nc(c1-c1cnn(C(C)C)c1)OC[C@@H](C)NC(=O)c1cccc(c1)S(=O)(=O)N2 [Compound 139]	+ (+ is <30%)	3000 to 30000 nM
Cc1cccc(C)c1-c1nc2nc(c1C(=O)O)OC[C@@H](CC(C)C)N(C1CC3(CC3)C1)C(=O)c1cccc(c1)S(=O)(=O)N2 [Compound 168, (11R)-6-(2,6-Dimethylphenyl)-11-isobutyl-2,2,13-trioxo-12-spiro[2.3]hexan-5-yl-9-oxa-2λ^6-thia-3,5,12,19-tetrazatricyclo[12.3.1.14,8]nonadeca-1(18),4(19),5,7,14,16-hexaene-7-carboxylic acid]	+ (+ is <30%)	–
Cc1ccc(C(F)(F)F)c(C)c1-c1nc2nc(c1C(F)(F)F)OC[C@@H](CC(C)C)NC(=O)c1cccc(c1)S(=O)(=O)N2 [Compound 163, (11R)-6-[2,6-Dimethyl-3-(trifluoromethyl)phenyl]-11-isobutyl-2,2-dioxo-7-(trifluoromethyl)-9-oxa-2λ^6-thia-3,5,12,19-tetrazatricyclo[12.3.1.14,8]nonadeca-1(18),4(19),5,7,14,16-hexaen-13-one]	+++ (+++ is >60%)	< 1000 nM
COc1cccc(-c2c3nc(nc2-c2c(C)cccc2C)NS(=O)(=O)c2cccc(c2)C(=O)NC[C@@H](C)O3)c1 [Compound 122, (10R)-6-(2,6-Dimethylphenyl)-7-(3-methoxyphenyl)-10-methyl-2,2-dioxo-9-oxa-2λ^6-thia-3,5,12,19-tetrazatricyclo[12.3.1.14,8]nonadeca-1(18),4(19),5,7,14,16-hexaen-13-one]	+++ (+++ is >60%)	< 1000 nM
Cc1cccc(C)c1-c1nc2nc(c1C)OC[C@@H](CC(C)C)N(C1CC3(CC(CO)C3)C1)C(=O)c1cccc(c1)S(=O)(=O)N2 (stereo in doubt) [Compound 67]	+++ (+++ is >60%)	< 1000 nM
Cc1cccc(C)c1-c1nc2nc(c1C)OC[C@@H](CCC(C)(C)O)NC(=O)c1cccc(c1)S(=O)(=O)N2 [Compound 107, (11R)-6-(2,6-Dimethylphenyl)-11-(3-hydroxy-3-methyl-butyl)-7-methyl-2,2-dioxo-9-oxa-2λ^6-thia-3,5,12,19-tetrazatricyclo[12.3.1.14,8]nonadeca-1(18),4(19),5,7,14,16-hexaen-13-one]	+ (+ is <30%)	3000 to 30000 nM
Cc1cccc(C)c1-c1nc2nc(c1C)O[C@H](C)CN(C1CC3(CC(NC(=O)OC(C)(C)C)C3)C1)C(=O)c1cccc(c1)S(=O)(=O)N2 (some centres unmarked) [Compound 201]	++ (++ is 30-60%)	< 1000 nM
Cc1cccc(C)c1-c1nc2nc(c1C)OC[C@@H](CC(C)(C)C)N(C1CC3(CC(NC(=O)OC(C)(C)C)C3)C1)C(=O)c1cccc(c1)S(=O)(=O)N2 (single isomer, unassigned) [Compound 59]	+++ (+++ is >60%)	< 1000 nM
Cc1cccc(C)c1-c1nc2nc(c1-c1cnn(C(C)C)c1)O[C@H](C)CNC(=O)c1cccc(c1)S(=O)(=O)N2 [Compound 147]	++ (++ is 30-60%)	3000 to 30000 nM
COC(=O)NC1CC2(C1)CC(N1C(=O)c3cccc(c3)S(=O)(=O)Nc3nc(c(C)c(-c4c(C)cccc4C)n3)OC[C@H]1CC(C)C)C2 (stereo in doubt) [Compound 69]	+++ (+++ is >60%)	< 1000 nM
Cc1cccc(C)c1-c1nc2nc(c1C)OC[C@@H](CC(C)C)N([C@H]1C[C@@]3(C[C@H](NC(=O)OC(C)C)C3)C1)C(=O)c1cccc(c1)S(=O)(=O)N2 (single isomer, unassigned) [Compound 51]	+++ (+++ is >60%)	< 1000 nM
COc1ccccc1-c1c2nc(nc1-c1c(C)cccc1C)NS(=O)(=O)c1cccc(c1)C(=O)N[C@H](C)CO2 [Compound 123, (11R)-6-(2,6-Dimethylphenyl)-7-(2-methoxyphenyl)-11-methyl-2,2-dioxo-9-oxa-2λ^6-thia-3,5,12,19-tetrazatricyclo[12.3.1.14,8]nonadeca-1(18),4(19),5,7,14,16-hexaen-13-one]	+++ (+++ is >60%)	1000 to 3000 nM
Cc1cccc(C)c1-c1nc2nc(c1-c1ccccn1)O[C@H](C)CNC(=O)c1cccc(c1)S(=O)(=O)N2 [Compound 154]	+ (+ is <30%)	3000 to 30000 nM
Cc1cccc(C)c1-c1nc2nc(c1C)OC[C@@H](CC(C)(C)C)N(C1CC3(CC(NC(=O)OC(C)C)C3)C1)C(=O)c1cccc(c1)S(=O)(=O)N2 (single isomer, unassigned) [Compound 65]	+++ (+++ is >60%)	< 1000 nM
Cc1cccc(C)c1-c1nc2nc(c1C)OC[C@@H](CC(C)C)N([C@H]1C[C@@]3(C[C@H](N(C)C)C3)C1)C(=O)c1cccc(c1)S(=O)(=O)N2 (single isomer, unassigned) [Compound 54]	+++ (+++ is >60%)	< 1000 nM
